Like-named read-outs stand apart in the source and are kept apart here.
Assays:
[1] = system: panel of sixty different human tumor cell lines; assay: NCI human tumor cell panel: whole panel (mean graph summary); settings: for CC50: Homo sapiens
RXF-393 = assay: NCI human tumor cell panel: RXF-393 (Renal Cancer); format: cell-based
HCC-2998 = assay: NCI human tumor cell panel: HCC-2998 (Colon Cancer); format: cell-based
SK-MEL-28 = assay: NCI human tumor cell panel: SK-MEL-28 (Melanoma); format: cell-based
CAKI-1 = assay: NCI human tumor cell panel: CAKI-1 (Renal Cancer); format: cell-based
SK-MEL-5 = assay: NCI human tumor cell panel: SK-MEL-5 (Melanoma); format: cell-based
NCI-H322M = assay: cells; format: cell-based; settings: Homo sapiens
SF-268 = assay: NCI human tumor cell panel: SF-268 (CNS Cancer); format: cell-based
OVCAR-3 = assay: NCI human tumor cell panel: OVCAR-3 (Ovarian Cancer); format: cell-based
MDA-MB-231/ATCC = assay: NCI human tumor cell panel: MDA-MB-231/ATCC (Breast Cancer); format: cell-based; settings: Homo sapiens, MDA-MB-231, MDA-MB-231/ATCC
RPMI-8226 = assay: NCI human tumor cell panel: RPMI-8226 (Leukemia); format: cell-based
HL-60(TB) = assay: NCI human tumor cell panel: HL-60(TB) (Leukemia); format: cell-based
SF-539 = assay: NCI human tumor cell panel: SF-539 (CNS Cancer); format: cell-based
U251 = assay: NCI human tumor cell panel: U251 (CNS Cancer); format: cell-based
CCRF-CEM = assay: NCI human tumor cell panel: CCRF-CEM (Leukemia); format: cell-based
MDA-N = assay: NCI human tumor cell panel: MDA-N (Breast Cancer); format: cell-based
M14 = assay: NCI human tumor cell panel: M14 (Melanoma); format: cell-based
MCF7 = assay: NCI human tumor cell panel: MCF7 (Breast Cancer); format: cell-based
MDA-MB-435 = assay: NCI human tumor cell panel: MDA-MB-435 (Breast Cancer); format: cell-based; settings: MDA-MB-435, read-out: Log10 GI50 (converted)
NCI-H522 = assay: NCI human tumor cell panel: NCI-H522 (Non-Small Cell Lung Cancer)
SNB-19 = assay: NCI human tumor cell panel: SNB-19 (CNS Cancer); format: cell-based
SK-MEL-2 = assay: NCI human tumor cell panel: SK-MEL-2 (Melanoma); format: cell-based
DU-145 = assay: NCI human tumor cell panel: DU-145 (Prostate Cancer); format: cell-based
[2] = Selective cytotoxicity microculture assay, human renal carcinoma; settings: human, SCI (selectively cytotoxicity index), GI50 (RPTEC)/GI50 (A-498)
NCI-H226 = assay: NCI human tumor cell panel: NCI-H226 (Non-Small Cell Lung Cancer); format: cell-based
UO-31 = assay: NCI human tumor cell panel: UO-31 (Renal Cancer); format: cell-based
[3] = read-out: Log10 GI50 (converted)
[4] = read-out: Log10 TGI (converted)

## OCc1ccc(-c2ccc(-c3ccc(CO)[se]3)s2)[se]1 [compound 676632]
[1]; read-out: Log10 LC50, MG_MID, mean over the panel (converted)
  CC50: 69.2 µM
[1]; read-out: Log10 LC50, row head (cell line) not given (converted)
  CC50: > 100 µM
[1]; listed as head (cell line) not given
  Log10 TGI: >−4.00
[1]; mean over the panel
  Log10 GI50, MG_MID: −5.16
  Log10 TGI, MG_MID: −4.48
[1]; whole panel
  Log10 TGI, Delta: 2.89
  Log10 TGI, Range: 3.37
RXF-393; RXF-393, read-out: Log10 GI50 (converted)
  GI50: > 100 µM
RXF-393; RXF-393, read-out: Log10 TGI (converted)
  IC (TGI): > 100 µM
HCC-2998; HCC-2998, read-out: Log10 GI50 (converted)
  GI50: 0.178 µM
HCC-2998; HCC-2998, read-out: Log10 TGI (converted)
  IC (TGI): 0.55 µM
SK-MEL-28; SK-MEL-28, read-out: Log10 GI50 (converted)
  GI50: > 100 µM
SK-MEL-28; SK-MEL-28, read-out: Log10 TGI (converted)
  IC (TGI): > 100 µM
CAKI-1; CAKI-1, read-out: Log10 GI50 (converted)
  GI50: 0.0126 µM
CAKI-1; CAKI-1, read-out: Log10 TGI (converted)
  IC (TGI): 0.123 µM
SK-MEL-5; SK-MEL-5, read-out: Log10 GI50 (converted)
  GI50: 63.1 µM
SK-MEL-5; SK-MEL-5, read-out: Log10 TGI (converted)
  IC (TGI): > 100 µM
NCI-H322M; [3]
  GI50: > 100 µM
NCI-H322M; [4]
  IC (TGI): > 100 µM
SF-268; SF-268, read-out: Log10 GI50 (converted)
  GI50: > 100 µM
SF-268; SF-268, read-out: Log10 TGI (converted)
  IC (TGI): > 100 µM
OVCAR-3; OVCAR-3, read-out: Log10 GI50 (converted)
  GI50: 0.0195 µM
OVCAR-3; OVCAR-3, read-out: Log10 TGI (converted)
  IC (TGI): 0.0676 µM
MDA-MB-231/ATCC; [3]
  GI50: > 100 µM
MDA-MB-231/ATCC; [4]
  IC (TGI): > 100 µM
RPMI-8226; RPMI-8226, read-out: Log10 GI50 (converted)
  GI50: > 100 µM
RPMI-8226; RPMI-8226, read-out: Log10 TGI
  IC (TGI): > 100 µM
HL-60(TB); [3]
  GI50: > 100 µM
HL-60(TB); read-out: Log10 TGI
  IC (TGI): > 100 µM
SF-539; SF-539, read-out: Log10 GI50 (converted)
  GI50: > 100 µM
SF-539; SF-539, read-out: Log10 TGI (converted)
  IC (TGI): > 100 µM
U251; U-251, U251, read-out: Log10 GI50 (converted)
  GI50: 0.0355 µM
U251; U-251, U251, read-out: Log10 TGI (converted)
  IC (TGI): 12 µM
CCRF-CEM; [3]
  GI50: 87.1 µM
CCRF-CEM; [4]
  IC (TGI): > 100 µM
MDA-N; [3]
  GI50: > 100 µM
MDA-N; [4]
  IC (TGI): > 100 µM
M14; M14, read-out: Log10 GI50 (converted)
  GI50: > 100 µM
M14; M14, read-out: Log10 TGI (converted)
  IC (TGI): > 100 µM
MCF7; MCF7, read-out: Log10 GI50 (converted)
  GI50: 0.0123 µM
MCF7; MCF7, read-out: Log10 TGI (converted)
  IC (TGI): > 100 µM
MDA-MB-435
  GI50: > 100 µM
NCI-H522; NCI-H522, read-out: Log10 GI50 (converted)
  GI50: > 100 µM
NCI-H522; NCI-H522, read-out: Log10 TGI
  IC (TGI): > 100 µM
SNB-19; SNB-19, read-out: Log10 GI50 (converted)
  GI50: 42.7 µM
SNB-19; SNB-19, read-out: Log10 TGI (converted)
  IC (TGI): > 100 µM
SK-MEL-2; SK-MEL-2, read-out: Log10 GI50 (converted)
  GI50: > 100 µM
SK-MEL-2; SK-MEL-2, read-out: Log10 TGI (converted)
  IC (TGI): > 100 µM
DU-145; DU-145, read-out: Log10 GI50 (converted)
  GI50: 95.5 µM
DU-145; DU-145, read-out: Log10 TGI (converted)
  IC (TGI): > 100 µM
[2]
  selectivity ratio: > 1000
NCI-H226; NCI-H226, read-out: Log10 GI50 (converted)
  GI50: 0.0195 µM
NCI-H226; NCI-H226, read-out: Log10 TGI (converted)
  IC (TGI): 0.0537 µM
UO-31; UO-31, read-out: Log10 GI50 (converted)
  GI50: > 100 µM
UO-31; UO-31, read-out: Log10 TGI (converted)
  IC (TGI): > 100 µM
